Patent publication US4401660A, “Ester derivatives of 5-O-mycaminosyl tylonolide and method of using same” (Eli Lilly and Company, priority 1981, dated 1983)
Like-named read-outs stand apart in the source and are kept apart here.

How the values were obtained:
[1] = test system: Pasteurella multocida; experiment: Treatment of Pasteurella infections in chicks (Table V); format: in vivo, one-day-old chicks; settings: Pasteurella multocida, sc, 4 h; 30 mg/kg by subcutaneous injection one and four hours post challenge; read-out: Deaths in Treated Chicks/Number Treated (converted)
Method in brief: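 Dosing was 30 mg/kg by subcutaneous injection, one and four hours after challenge. Day-old chicks received 0.1 ml of a 10^-3 dilution of a 20-hour tryptose broth culture of avian P. multocida subcutaneously. Nonmedicated infected chicks served as controls, ten per group.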

[2] = test system: Streptococcus sp. 80; experiment: MIC, broth-dilution microtiter test (Table III); format: cell-based; parameters: unit not given here
Description: (§1) The MIC's in Table II were determined by standard agar-dilution assays. The MIC's in Table III were obtained using a conventional broth-dilution microtiter test.

[3] = test system: Mycoplasma synoviae; experiment: MIC, broth-dilution microtiter test (Table III); format: cell-based; parameters: unit not given here
Description: as §1

[4] = test system: Staphylococcus aureus; experiment: MIC, broth-dilution microtiter test (Table III); format: cell-based; parameters: unit not given here
Description: as §1

[5] = test system: Pasteurella haemolytica 23C; experiment: MIC, broth-dilution microtiter test (Table III); format: cell-based; parameters: unit not given here
Description: as §1

[6] = test system: Pasteurella multocida 68C; experiment: MIC, broth-dilution microtiter test (Table III); format: cell-based; parameters: unit not given here
Description: as §1

[7] = test system: Pasteurella multocida 22A; experiment: MIC, broth-dilution microtiter test (Table III); format: cell-based; parameters: unit not given here
Description: as §1

[8] = test system: Pasteurella haemolytica 41D; experiment: MIC, broth-dilution microtiter test (Table III); format: cell-based; parameters: unit not given here
Description: as §1

[9] = test system: Pasteurella multocida 17E; experiment: MIC, broth-dilution microtiter test (Table III); format: cell-based; parameters: unit not given here; settings: bovine isolate
Description: as §1

[10] = test system: Pasteurella haemolytica 22C; experiment: MIC, broth-dilution microtiter test (Table III); format: cell-based; parameters: unit not given here
Description: as §1

[11] = test system: Pasteurella multocida 40G; experiment: MIC, broth-dilution microtiter test (Table III); format: cell-based; parameters: unit not given here
Description: as §1

[12] = test system: Mycoplasma gallisepticum; experiment: MIC, broth-dilution microtiter test (Table III); format: cell-based; parameters: unit not given here
Description: as §1

[13] = test system: Pasteurella multocida 60A; experiment: MIC, broth-dilution microtiter test (Table III); format: cell-based; parameters: unit not given here; settings: avian isolate
Description: as §1

[14] = test system: Mycoplasma hyorhinis; experiment: MIC, broth-dilution microtiter test (Table III); format: cell-based; parameters: unit not given here
Description: as §1

[15] = test system: Streptococcus Group D X66; experiment: MIC, standard agar-dilution assay (Table II); format: cell-based; parameters: unit not given here
Description: as §1

[16] = test system: Haemophilus influenzae R252; experiment: MIC, standard agar-dilution assay (Table II); format: cell-based; parameters: unit not given here; settings: Haemophilus influenzae R252, ampicillin-resistant strain
Description: as §1

[17] = test system: Staphylococcus aureus V41; experiment: MIC, standard agar-dilution assay (Table II); format: cell-based; parameters: unit not given here; settings: Staphylococcus aureus V41, penicillin-resistant strain
Description: as §1

[18] = test system: Streptococcus Group D 9960; experiment: MIC, standard agar-dilution assay (Table II); format: cell-based; parameters: unit not given here
Description: as §1

[19] = test system: Streptococcus pneumoniae Park I; experiment: MIC, standard agar-dilution assay (Table II); format: cell-based; parameters: unit not given here
Description: as §1

[20] = test system: Streptococcus pyogenes C203; experiment: MIC, standard agar-dilution assay (Table II); format: cell-based; parameters: unit not given here
Description: as §1

[21] = test system: Haemophilus influenzae Holt; experiment: MIC, standard agar-dilution assay (Table II); format: cell-based; parameters: unit not given here; settings: ampicillin-sensitive strain
Description: as §1

[22] = test system: Staphylococcus aureus X400; experiment: MIC, standard agar-dilution assay (Table II); format: cell-based; parameters: unit not given here; settings: Staphylococcus aureus X400, methicillin-resistant strain
Description: as §1

[23] = test system: Staphylococcus aureus X1.1; experiment: MIC, standard agar-dilution assay (Table II); format: cell-based; parameters: unit not given here
Description: as §1

[24] = test system: Staphylococcus epidermidis EPI2; experiment: MIC, standard agar-dilution assay (Table II); format: cell-based; parameters: unit not given here
Description: as §1

[25] = test system: Staphylococcus aureus S13E; experiment: MIC, standard agar-dilution assay (Table II); format: cell-based; parameters: unit not given here
Description: as §1

[26] = test system: Staphylococcus epidermidis EPI1; experiment: MIC, standard agar-dilution assay (Table II); format: cell-based; parameters: unit not given here
Description: as §1

[27] = test system: Streptococcus pyogenes C203; experiment: ED50 in mice with experimental infections (Table IV); format: in vivo; settings: Streptococcus pyogenes, doses given 1 and 4 hours postinfection
Method in brief: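 Read-out is ED50, the mg/kg dose protecting half of infected mice; values refer to each of two doses, given 1 and 4 hours after infection.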

[28] = C203, oral, read-out: ED50, Oral
[29] = C203, sc, subcutaneous, read-out: ED50, Subcutaneous

Compound	mortality at 30 mg/kg [1] [%]	minimal inhibitory concentration (MIC) [2]	minimal inhibitory concentration (MIC) [4]	minimal inhibitory concentration (MIC) [5]	minimal inhibitory concentration (MIC) [6]	minimal inhibitory concentration (MIC) [7]	minimal inhibitory concentration (MIC) [8]	minimal inhibitory concentration (MIC) [9]	minimal inhibitory concentration (MIC) [10]	minimal inhibitory concentration (MIC) [11]	minimal inhibitory concentration (MIC) [12]	minimal inhibitory concentration (MIC) [13]	minimal inhibitory concentration (MIC) [14]	minimal inhibitory concentration (MIC) [15]	minimal inhibitory concentration (MIC) [17]	minimal inhibitory concentration (MIC) [18]	minimal inhibitory concentration (MIC) [19]	minimal inhibitory concentration (MIC) [20]	minimal inhibitory concentration (MIC) [22]	minimal inhibitory concentration (MIC) [23]	further results
CCC1OC(=O)CC(O)C(C)C(OC2OC(C)C(O)C(N(C)C)C2OC(C)=O)C(CC=O)CC(C)C(=O)C=CC(C)=CC1CO (stereo not drawn) [Compound 1, 2'-O-Acetyl-OMT]	0	0.78	1.56	12.5	3.12	3.12	12.5	1.56	12.5	6.25	0.39	1.56	3.12	2	4	4	0.5	0.5	4	2	minimal inhibitory concentration (MIC) [3]: 0.39; minimal inhibitory concentration (MIC) [16]: 4; minimal inhibitory concentration (MIC) [21]: 4; minimal inhibitory concentration (MIC) [24]: 2; minimal inhibitory concentration (MIC) [25]: 4; minimal inhibitory concentration (MIC) [26]: 2; ED50 [27, 28]: > 150 mg/kg; ED50 [27, 29]: 6.8 mg/kg
CCC1OC(=O)CC(O)C(C)C(OC2OC(C)C(O)C(N(C)C)C2O)C(CC=O)CC(C)C(=O)C=CC(C)=CC1COC(=O)[C@H](O)c1ccccc1 (stereo partly drawn) [Compound 42, 23-O-Mandeloyl-OMT]	0	0.39	0.78	6.25	3.12	6.25	3.12	6.25	6.25	1.56	0.39	3.12	12.5	0.25	0.5	0.25	0.06	0.125	0.5	0.25	minimal inhibitory concentration (MIC) [3]: 0.195; minimal inhibitory concentration (MIC) [24]: 0.5; minimal inhibitory concentration (MIC) [25]: 0.25; minimal inhibitory concentration (MIC) [26]: 0.25; ED50 [27, 28]: > 150 mg/kg; ED50 [27, 29]: 11 mg/kg
CCC1OC(=O)CC(O)C(C)C(OC2OC(C)C(O)C(N(C)C)C2O)C(CC=O)CC(C)C(=O)C=CC(C)=CC1COC(=O)COc1ccccc1 (stereo not drawn) [Compound 36, 23-O-Phenoxyacetyl-OMT]	10	< 0.05	0.39	3.12	0.78	3.12	3.12	1.56	3.12	1.56	< 0.05	1.56	1.56	0.125	0.25	0.125	0.03	0.06	0.25	0.125	minimal inhibitory concentration (MIC) [16]: 0.5; minimal inhibitory concentration (MIC) [21]: 0.5; minimal inhibitory concentration (MIC) [24]: 0.25; minimal inhibitory concentration (MIC) [25]: 0.125; minimal inhibitory concentration (MIC) [26]: 0.125; ED50 [27, 28]: > 150 mg/kg; ED50 [27, 29]: 6 mg/kg
CCC1OC(=O)CC(O)C(C)C(OC2OC(C)C(O)C(N(C)C)C2O)C(CC=O)CC(C)C(=O)C=CC(C)=CC1COC(=O)Cc1cccnc1 (stereo not drawn) [Compound 44, 23-O-(3-Pyridylacetyl)-OMT]	0	0.39	0.39	6.25	3.12	3.12	6.25	3.12	3.12	3.12	0.78	0.78	0.78	0.125	0.25	0.125	0.03	0.015	0.25	0.25	minimal inhibitory concentration (MIC) [3]: < 0.05; minimal inhibitory concentration (MIC) [24]: 0.125; minimal inhibitory concentration (MIC) [25]: 0.25; minimal inhibitory concentration (MIC) [26]: 0.125; ED50 [27, 28]: 150 mg/kg; ED50 [27, 29]: 13 mg/kg
CCC1OC(=O)CC(O)C(C)C(OC2OC(C)C(OC(C)=O)C(N(C)C)C2OC(C)=O)C(CC=O)CC(C)C(=O)C=CC(C)=CC1COC(=O)CSc1ccc(Cl)c(Cl)c1 (stereo not drawn) [Compound 37, 2',4'-Di-O-acetyl-23-O-[(3,4-dichlorophenylthio)acetyl]-OMT]	100	< 0.05	0.39	6.25	0.78	6.25	12.5	1.56	6.25	3.12	< 0.05	3.12	6.25	2	4	2	0.5	0.5	4	2	minimal inhibitory concentration (MIC) [3]: 0.78; minimal inhibitory concentration (MIC) [24]: 4; minimal inhibitory concentration (MIC) [25]: 2; minimal inhibitory concentration (MIC) [26]: 2; ED50 [27, 28]: > 150 mg/kg
CCC1OC(=O)CC(O)C(C)C(OC2OC(C)C(O)C(N(C)C)C2O)C(CC=O)CC(C)C(=O)C=CC(C)=CC1COC(=O)[C@H](NC(=O)OC(C)(C)C)c1ccccc1 (stereo partly drawn) [Compound 40, 23-O-(D-t-BOC-Phenylglycyl)-OMT]	100	0.195	0.78	12.5	6.25	12.5	12.5	6.25	12.5	6.25	< 0.05	6.25	0.39	0.5	1	0.5	0.06	0.125	1	0.5	minimal inhibitory concentration (MIC) [16]: 2; minimal inhibitory concentration (MIC) [21]: 2; minimal inhibitory concentration (MIC) [24]: 0.5; minimal inhibitory concentration (MIC) [25]: 0.5; minimal inhibitory concentration (MIC) [26]: 0.5; ED50 [27, 28]: 116 mg/kg; ED50 [27, 29]: 5 mg/kg
